Laboratory results: US9657081B2, “Inhibiting peptides derived from triggering receptor expressed on myeloid cells-1 (TREM-1) TREM-like transcript 1 (TLT-1) for treatment of cardiovascular diseases” (INSERM (Institut National de la Sante et de la Recherche …, priority 2013, dated 2017)

Tests used:
Type in all cases: in vivo
TREM-1 [1] = test: Rat model of myocardial ischemia-reperfusion, cardiac function by conductance catheter; parameters: PRSW: unit not given beside the values; Emax / ESPVR: unit not given here; conditions: six weeks after ischemia-reperfusion; 3 mg/kg once a day for 5 days
Experimental: Adult male Wistar rats were subjected to myocardial ischemia-reperfusion and were randomly grouped (n=10) to receive repeated TREM-1- and TLT-1-derived peptides (3 mg/kg in 0.2 mL NaCl 0.9% once a day for 5 days) or scrambled-LR12 (3 mg/kg in 0.2 mL NaCl 0.9% once a day for 5 days). Six weeks after myocardial injury, cardiac function was investigated under anaesthesia by using a conductance catheter. Emax, ESPVR, and PRSW were higher in animals treated with TREM-1- and TLT-1-derived peptides than in control rats. All p<0.02 [controls versus LR12]).
Animals received same surgery than in permanent ischemia, but with reperfusion of ischemic area by release of the LAD ligation after 60 minutes of ischemia. The same protocol as described above was then applied.
(§1) Rats were anaesthetized with isoflurane and a 2 F high-fidelity micro-manometer catheter (SPR-407, Millar Institute, Houston, Tex., USA) was inserted into the LV via the right carotid artery. The Millar catheter was connected to a Harvard Data Acquisition System interfaced with a PC with the AcqKnowledge III software (ACQ 3.2).
To investigate the role of TREM-1- and TLT-1-derived peptides in a more relevant model of MI, we performed a transient coronary artery ligation (ischemia-reperfusion model: IR) in rats. After randomisation, animals were then imaged under anaesthesia (micro-TEP) and administered with TREM-1- and TLT-1-derived peptides (3 mg/kg daily for 5 days i.p.) or LR12-scrambled peptide. Imaging was then repeated at 6 weeks before we studied cardiac function by using a conductance catheter (Millar).

TREM-1 [2] = test: Rat model of sepsis-induced cardiac dysfunction, intrinsic cardiac function by Millar catheter; parameters: dpdtmax/Ved / PRSW: unit not given beside the values; FEVG / ESPVR: unit not given here
Excerpt: TREM-1- and TLT-1-derived peptides administration during rat model of sepsis-induced cardiac dysfunction is associated with an increase of intrinsic cardiac function measured by Millar catheter (FEVG, ESPVR, dpdtmax/Ved, PRSW).
as §1

TREM-1 [3] = target: T1, TREM-1 (Mus musculus, UniProt Q9JKE2); test: Mouse model of myocardial infarction, survival; conditions: 100 μg daily for 5 days i.p.
T1 construct: endogenous in cells; host or cells: living mice (C57BL, Balb/c, ApoE-/-), in vivo
T1 sequence (Q9JKE2 21-230): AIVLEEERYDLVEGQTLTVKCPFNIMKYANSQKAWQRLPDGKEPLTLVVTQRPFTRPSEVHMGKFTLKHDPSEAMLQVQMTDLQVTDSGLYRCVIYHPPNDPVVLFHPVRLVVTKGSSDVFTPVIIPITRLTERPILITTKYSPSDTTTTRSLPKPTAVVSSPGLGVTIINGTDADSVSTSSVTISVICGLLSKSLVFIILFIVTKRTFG
Experimental: Adult male Balb/c mice (20-23 g) were subjected to myocardial ischemia and were randomly grouped (n=10-15 per group) to receive repeated TREM-1- and TLT-1-derived peptides (100 μg in 0.2 mL NaCl 0.9% once a day for 5 days), scrambled-LR12 (100 μg in 0.2 mL NaCl 0.9% once a day for 5 days), or 10 μg anti-TREM-1 mAb in 0.2 mL NaCl 0.9% i.p. injections. Survival was monitored over 1 wk and analyzed by Log Rank test. (There were no deaths after the 5th day). Data are representative of at least 15 different experiments.
All procedures were performed on mice male C57BL/C ranging in age from 6-8 weeks. Mice were anesthetized by an intraperitoneal injection of xylazine (60 mg/kg) and fixed in supine position. The trachea was intubated and ventilated (the tidal volume was 200 μl/25 g and the respiratory rate was 120 breaths/min). After a left thoracotomy, the left coronary artery was identified and ligated with an 8-0 prolene surgical suture at 1.0 mm distal from tip of the left auricle. LAD occlusion was confirmed by a change in myocardial color from red to white in the ischemia area (Left ventricle). The chest was closed and the skin was sutured with 6-0 silk. […]
Mice were monitored after surgery for mortality. Mice were randomized to receive or not peptides (daily ip injection for 5 days, 5 mg/kg) and monitored for survival. […]

Substance	ESPVR (TREM-1 [1])	Emax (TREM-1 [1])	PRSW (TREM-1 [1])	ESPVR (TREM-1 [2])	FEVG (TREM-1 [2])	PRSW (TREM-1 [2])	dpdtmax/Ved (TREM-1 [2])	mice died (TREM-1 [3])
EDAGEY (listed as Homo sapiens) [TLT1-LR6-2]	1.8 ± 0.1	6.5 ± 0.9	99 ± 8	2.3 ± 0.2	75 ± 5.9	139 ± 10	155 ± 12	
EDSGLY (listed as Homo sapiens) [TREM1-LP6-2]	2.2 ± 0.1	6 ± 0.6	104 ± 5	2.7 ± 0.1	79.4 ± 9.9	144 ± 6	155 ± 15	
ELMEGGQECADY (synthetic peptide scramble) [TLT-1-LR12scr, reference compound]	1.1 ± 0.3	2.7 ± 0.3	65 ± 8	1.6 ± 0.3	39.9 ± 4.9	88 ± 8	61 ± 12	40%
GEYGCM (listed as Homo sapiens) [TLT-1LR6-3]	1.7 ± 0.3	5.2 ± 0.4	109 ± 6	2.2 ± 0.2	78 ± 8.7	149 ± 6	157 ± 10	
GLYQCV (listed as Homo sapiens) [TREM1-LP6-3]	2.3 ± 0.4	5.8 ± 0.5	99 ± 8	2.9 ± 0.4	78.6 ± 7.4	139 ± 8	163 ± 10	
LQEEDA (listed as Homo sapiens) [TLT1-LR6-1]	2.4 ± 0.4	4.5 ± 0.6	102 ± 6	2.9 ± 0.3	79.6 ± 7.4	142 ± 8	160 ± 15	
LQEEDAGEYGCMVDGAR (listed as Homo sapiens) [TLT1-LR17]	2 ± 0.2	5.1 ± 0.6	105 ± 6	2.5 ± 0.3	75.6 ± 7.2	145 ± 6	150 ± 12	
LQVEDS (listed as Homo sapiens) [TREM1-LP6-1]	2 ± 0.3	5.5 ± 0.4	105 ± 6	2.5 ± 0.3	76 ± 5.9	145 ± 6	150 ± 20	
LQVEDSGLYQCV (listed as Homo sapiens) [TREM1-LP12]	2.3 ± 0.4	4.5 ± 0.4	99 ± 4	2.8 ± 0.2	72 ± 9.4	139 ± 6	158 ± 18	
LQVEDSGLYQCVIYQPP (listed as Homo sapiens) [TREM1-LP17]	2.2 ± 0.3	5.9 ± 0.8	110 ± 5	2.7 ± 0.3	75.9 ± 8.9	150 + 8	156 ± 11	
